Values after ≈ are worked out from the molar mass of the structure shown.
Tested on: NF-kappa B
Assay: Evaluation of NF-kappa B inhibition (β-gal reporter driven by 6 NF-kappa B binding sequences in immortalized HUVEC, IL-1β induced)
Type: cell-based
Conditions: Homo sapiens; HUVEC reporter cells; compound added 30 minutes before IL-1β; β-gal activity determined after 16 hours; read-out: NF-kappa B Inhibitory Activity: IC50
Text: Evaluation of NF-kappa B Inhibition
In this evaluation, there were used cells obtained by stably introducing β-galactosidase (β-gal) gene of Escherichia coli, which was driven by an SV40 minimum promoter produced by fusing 6 NF-kappa B binding sequences derived from the kappa light chain enhancer of immunoglobulin arranged in a tandem to human normal umbilical venous endothelial cells (HUVEC) immortalized with an SV40 large-sized T-antigen. These cells were subjected to the subculture in an RPMI culture medium supplemented with 10% FBS (fetal bovine serum) and the cells were inoculated in wells of a 96-well plate in a concentration of 1×10^4 cells/well on the day before the initiation of the experiments. Each candidate compound of the present invention was dissolved in DMSO in an adequate concentration and then added to each well of the 96-well plate in such a manner that the final concentration of DMSO was adjusted to a level of not more than 1%. After 30 minutes from the addition of the compound, a […] IL-1β was added to each well to a final concentration of 50 ng/ml to thus induce the NF-kappa B activity and the β-gal activity was determined after 16 hours therefrom. The β-gal activity was determined using a chemiluminescent substrate (Galacton-Light-Plus available from Boehringer Manheim Company), which was used according to the protocols annexed to the reagent, and Luminescencer (available from ATO Company).

| Compound | IC50 [µg/mL] |
| --- | --- |
| CC1(C)CC1C(=O)Nc1ccc(Cc2ccccc2)cc1 (stereo not shown) [Example 1, 2,2-Dimethyl-cyclopropanecarboxylic acid (4-benzylphenyl)-amide] | 3 (≈ 10.7 µM) |
| Cc1ccc(NC(=O)C2CC2(C)C)cc1 (stereo not shown) [Example 2, 2,2-Dimethyl-cyclopropanecarboxylic acid p-tolylamide] | 3 (≈ 14.8 µM) |
| CC1(C)CC1C(=O)Nc1ccc(Oc2ccc(Cl)cc2)cc1 (stereo not shown) [Example 9, 2,2-Dimethyl-cyclopropanecarboxylic acid [4-(4-chlorophenoxy)-phenyl]-amide] | 5 (≈ 15.8 µM) |
| CC1(C)CC1C(=O)Nc1ccc(Nc2ccccc2)cc1 (stereo not shown) [Example 12, 2,2-Dimethyl-cyclopropanecarboxylic acid (4-phenylamino-phenyl)-amide] | 2 (≈ 7.13 µM) |

Source: US20040002521A1, “Cyclopropanecarboxylic acid amide compound and pharmaceutical use thereof” (AJINOMOTO CO. INC, priority 2000, published 2004)
